Source: patent US9309229B2, “Crystalline forms of 5-chloro-N2-(2-isopropoxy-5-methyl-4-piperidin-4-yl-phenyl)-N4-[2-(propane-2-sulfonyl)-phenyl]-pyrimidine-2, 4-diamine” (Novartis AG, priority 2010, dated 2016)
≈ marks a conversion by molar mass, not a printed value.

Assays:
Assay type in all cases: physicochemical
[1] = pH of 1% suspension in water
[2] = Stability of the form in pH 1 (0.1N HCl) solution; conditions: pH 1 (0.1N HCl) solution over 72 hour
[3] = Hygroscopicity (moisture uptake at relative humidity)
[4] = Solubility of crystalline form A

Cc1cc(Nc2ncc(Cl)c(Nc3ccccc3S(=O)(=O)C(C)C)n2)c(OC(C)C)cc1C1CCNCC1 [Form A, 5-Chloro-N2-(2-isopropoxy-5-methyl-4-piperidin-4-yl-phenyl)-N4-[2-(propane-2-sulfonyl)-phenyl]-pyrimidine-2,4-diamine]
pH of 1% suspension in water [1]: 6.86
conversion of form in solution [2]: converted to a hydrochloride salt (non-stoichiometric)
hygroscopicity ([3]; 84% relative humidity (RH)): relatively non-hygroscopic
moisture uptake ([3]; 93% RH): minor increase in moisture uptake
solubility ([4]; in water): 0.21 mg/mL (≈ 0.376 mM)
solubility ([4]; organic solvent or mixture, in methanol (organic solvent)): 40 mg/mL (≈ 71.7 mM)
solubility ([4]; pH 1 solution (0.1N HCl), simulated gastric fluid, in pH 1): 11 mg/mL (≈ 19.7 mM)
